Here are results for six molecules from patent US5332734A, “Oxazinone derivative” (Japan Tobacco, Incorporated, priority 1991, dated 1994).

Molecules are shown by their SMILES.

Assay type in all cases: biochemical
Experiment [1] deals with T1, human leukocyte elastase (HLE) (Homo sapiens, UniProt P08246).
T1 construct: applying a density gradient centrifugal operation so as to obtain neutrophils; from tissue; host or cells: neutrophils from human venous blood
T1 sequence (P08246 30-267): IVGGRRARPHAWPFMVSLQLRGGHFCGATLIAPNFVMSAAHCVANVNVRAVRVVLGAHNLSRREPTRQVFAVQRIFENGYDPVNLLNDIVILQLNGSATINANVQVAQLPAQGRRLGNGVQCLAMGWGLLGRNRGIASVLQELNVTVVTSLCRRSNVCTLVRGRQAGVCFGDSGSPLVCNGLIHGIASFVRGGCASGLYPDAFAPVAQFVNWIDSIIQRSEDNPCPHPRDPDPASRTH
The experiment is described as follows: HLE inhibitory activity. To be noted: HLE 5.63 nM, substrate 0.2625 mM, pH 8.6, 37° C. The protocol: (§1) Inhibotory activities of the oxadinone derivative of the present invention against human leukocyte elastase (HLE), human sputum elastase (HSE), human cathepsin G (HCG), bovine pancreatic α-chymotrypsin (CYT) and bovine pancreatic trypsin (TRY) were measured as follows:
(1) Measurement of HLE Inhibitory Activity
A buffy coat was obtained by subjecting human vein blood to centrifugal separation, followed by adding distilled water to the buffy coat thus obtained for performing a low tension treatment so as to collapse erythrocytes. A mixture consisting of 10 parts of a 33.4% Conrey 400 solution and 24 parts of 9% of Ficoll solution was added to the residual blood cell component, followed by applying a density gradient centrifugal operation so as to obtain neutrophils. The neutrophil fraction was washed three times with Hanks' buffer so as to recover cells, which were frozen at -80° C. for preservation until the cells were used. The cells preserved under a frozen state were thawed with warm water of 37° C. and suspended in the lysis buffer (0.1M Tris-HCl pH 7.5, 1M MgCl2, 0.1% Brij 35), the amount of the buffer being 9 times as much as that of the cells. Then, the suspended cells were collapsed with polotron while cooling the suspension with ice. Then, the suspension was subjected to a centrifugal separation at 100,000×g for one hour so as to remove the precipitate. Also, a buffer (5 mM Tris-HCl pH 7.5, 1M NaCl, 1.1% Brij 35) was added to the supernatant in an amount twice as much as the supernatant so as to prepare a crude solution of an enzyme extract. The crude solution of an enzyme extract was adsorbed on an aprotinin affinity column. Further, the active fraction eluted with a 50 ml glycine-HCl solution (pH 3.3, 1M NaCl, 0.1% Brij 35) was passed through a MONO S ion-exchange chromatography. The active fraction eluted with a 2M NaCl linear gradient was dialyzed and, then, subjected to a freeze-drying so as to prepare an enzyme sample.
A test compound to be detected was dissolved in DMSO (for fluorometry) so as to prepare solutions of various concentrations. Then, the solution of 0.2M Tris-HCl (pH 9.6) was added to each of the solutions in an amount twice as much as the solution so as to prepare a test solution. On the other hand, a synthetic substrate (MeOSuc-Ala-Pro-Val-pNA; FUNAKOSHI) was dissolved in DMSO, followed by adding 0.2M tris-HCl solution (pH 8.6) to the solution in an amount twice as much as the solution so as to prepare a substrate solution.
A microplate (NUNK) provided with 96 wells was used for the reaction. The reaction was repeatedly carried out 6 times for each concentration of the test compound. Each of 140 μl of the enzyme solution (0.2M Tris-HCl, pH 8.6), 30 μl of the test material solution and 30 μl of the substrate solution was pre-incubated for 10 minutes at 37° C. for each well of the microplate. After incubation of a mixture of the enzyme solution and the test material solution for 10 minutes, the substrate solution was added so as to carry out the enzyme reaction. For determining the substrate decomposition, the absorbance (405 run) of the released pNA was measured by a microplate reader (MTP-100; CORONA), and the substrate decomposition was calculated on the basis of the average value of the absorbances repeatedly measured 6 times. The inhibitory concentration of the test compound relative to the decomposition amount of the substrate in the case where the test compound was not added was obtained as IC50 value.

Experiment [2] deals with T2, bovine pancreatic α-chymotrypsin (CYT) (Bos taurus, UniProt P00766).
T2 construct: purchased Sigma Inc; host or cells: bovine pancreas (by its name)
The experiment is described as follows: CYT inhibitory activity. To be noted: CYT 3.4 nM, substrate 0.273 mM, pH 8.0. The method, then: as §1
(4) Measurement of CYT Inhibitory Activity
a) Enzyme Preparing Method Bought from Sigma Inc.
Employed was a measuring method similar to that described previously in conjunction with the measurement of the HLE inhibiting activity, except that used was a buffer solution of pH 8.0. The final concentrations of CYT and the synthetic substrate (Ac-Ala-Ala-Pro-Phe-pNA; FUNAKOSHI) in the solution of the enzyme reaction were 3.4 nM and 0.273 mM, respectively.

Experiment [3] deals with T3, human cathepsin G (HCG) (Homo sapiens, UniProt P08311).
T3 construct: purchased Cosmo Bio Inc
T3 sequence (P08311 21-255): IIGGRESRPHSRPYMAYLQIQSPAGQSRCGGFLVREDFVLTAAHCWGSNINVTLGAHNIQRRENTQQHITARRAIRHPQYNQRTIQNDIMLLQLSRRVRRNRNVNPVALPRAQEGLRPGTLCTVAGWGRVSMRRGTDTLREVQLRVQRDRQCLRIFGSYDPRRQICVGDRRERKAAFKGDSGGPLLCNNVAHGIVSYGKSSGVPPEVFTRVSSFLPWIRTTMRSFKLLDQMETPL
The experiment is described as follows: HCG inhibitory activity. The following applies: HCG 50 nM, substrate 0.5 mM, pH 7.5. The protocol: as §1
(3) Measurement of HCG Inhibitory Activity
a) Enzyme Preparing Method Bought from Cosmo Bio Inc.
Employed was a measuring method similar to that described previously in conjunction with the measurement of the HLE inhibiting activity, except that used was a buffer solution of pH 7.5. The final concentrations of HCG and the synthetic substrate (Ac-Ala-Ala-Pro-Phe-pNA; FUNAKOSHI) in the solution of the enzyme reaction were 50 nM and 0.5 mM, respectively.

For orientation: IC50 means the concentration needed to halve the response being measured. In the case of `Cc1cccc2nc([C@@H](NC(=O)COC3c4ccccc4-c4ccccc43)C(C)C)oc(=O)c12` [Compound 3, 2-{1(S)-[(9-fluorenyloxyacetyl)amino]-2-methylpropyl}-5-methyl-4H-3,1-benzoxazin-4-one], the IC50 in experiment [1] was 510 nM; in experiment [2], 3430 nM; in experiment [3] it was more than 27500 nM.

On to `Cc1cccc2nc([C@@H](NC(=O)CNC(=O)C3c4ccccc4-c4ccccc43)C(C)C)oc(=O)c12` [Compound 4, 2-[1(S)-[[N-(9-fluorenylcarbonyl)glycyl]amino]-2-methylpropyl]-5-methyl-4H-3,1-benzoxazin-4-one], for which the IC50 in experiment [1] worked out at 750 nM; in experiment [2] it was 6580 nM; in experiment [3] it was 11300 nM.

Consider `CC(=O)N(CCC(=O)N[C@H](c1nc2cccc(C)c2c(=O)o1)C(C)C)C1c2ccccc2-c2ccccc21` [Compound 5, 2-[1(S)-[[N-acetyl-N-(9-fluorenyl)-β-alanyl]amino]-2-methylpropyl]-5-methyl-4H-3,1-benzoxazin-4-one], for which the IC50 is 240 nM in experiment [1], 1960 nM in experiment [2] and more than 12300 nM in experiment [3].

In experiment [1], `Cc1cccc2nc([C@@H](NC(=O)C=C3c4ccccc4-c4ccccc43)C(C)C)oc(=O)c12` [Compound 6, 2-{1(S)-[(fluorene-Δ^9, ^α -acetyl)amino]-2-methylpropyl}-5-methyl-4H-3,1-benzoxazin-4-one] returned an IC50 of 640 nM.

In the case of `Cc1cccc2nc(CNC(=O)COC3c4ccccc4-c4ccccc43)oc(=O)c12` [Compound 7, 2-[(9-fluorenyloxyacetyl)aminomethyl]-5-methyl-4H-3,1-benzoxazin-4-one], the half-maximal inhibitory concentration (IC50) in experiment [1] is 1280 nM; in experiment [2], more than 7590 nM; in experiment [3], more than 7590 nM.

On to `Cc1cccc2nc(C(C)(C)NC(=O)COC3c4ccccc4-c4ccccc43)oc(=O)c12` [Compound 8, 2-{1-[(9-fluorenyloxyacetyl)amino]-1-methylethyl}-5-methyl-4H-3,1-benzoxazin-4-one], for which the IC50 in experiment [1] worked out at 1000 nM. This counts as single-digit micromolar.
